According to patent publication US20180235213A1, “PLANT HORMONE APPLICATION” (The State of Israel Ministry of Agriculture & Rural …, priority 2015, published 2018):
“Also recorded” adds a separate entry of the source.

Experiments:
[1] = test system: Roses (Rosa Hybrida); assay: EGO10 collar application to roses; type: in vivo
Method: Three replicates on experiments were done in two commercial plots. EGO10 was applied at the indicated concentrations as a collar in Eppendorf tube (FIG. 24).
HPC+glycerin and EGO10 (25 or 50 μM), provided in rigid tubes, were applied as described above (Example 13) to roses (Rosa hybrid golden gate). 20 days following application of the formulation by the delivery device, the length of axillary buds (in centimeters) was measured and the number of lateral buds was counted.

[2] = test system: Hypericum plants; assay: EGO10 collar and granules application to Hypericum plants; type: in vivo, Hypericum calycinum or Hypericum perforatum
Method: EGO10 (25 and 50 μM) with HPC+glycerin were applied in rigid tubes, as described above (Example 13) to Hypericum calycinum or Hypericum perforatum (Ivory Spices of Danziger, result of breeding for ornamental). Two replicates on experiments were done in the greenhouse. EGO10 was applied at the indicated concentrations as a collar. Also, EGO10 was applied in another, new way of application—as granules of slow release of 3×10^−8 M—that were applied in the soil, close to the root zone. […] An example to the results of the collar treatment is in FIG. 27.

[3] = test system: Pomegranate; assay: EGO10 collar application to pomegranate in commercial nursery; type: in vivo, Punica granatum; settings: 50 μM as collar in Eppendorf tubes
Method: (§1) Two replicates on experiments were performed in commercial nursery.

[4] = test system: olive cuttings; assay: Plate bioassay of bud outgrowth in olive cuttings; type: in vivo, Olea europaea L.
Method: For the purpose of determining whether the active SL analogs may be used as effective repressors of shoot branching by application on the stem itself, a bioassay examining SL analogs effect on shoot branching in vitro was established. Olive seedlings were grown in greenhouse under controlled temperature of 23° C. Partitioned plates containing ½ Murashige and Skoog (MS) solidified with 1.5% w/v agar were prepared. After solidification, the center plastic area (2 cm) of the plate was removed by scalpel. Olive seedlings were cut between the second and fourth node, and the cuttings were surface-sterilized by 70% ethanol and 1% sodium hypochlorite treatment, and then placed on the plates containing the agar media. The SL analog EGO10 was mixed with ½MS in agar, cubes were cut (1.5 cm area) and positioned at the base of the cutting in the plates (FIG. 4A). Olive seedlings treated with acetone at the same concentrations used in the EGO10 treatments represented the experimental controls. Plates were sealed in two sides only by saran wrap in order to prevent accumulation of gases. The plates were positioned in an upright 90° position and incubated at 22° C. under a photoperiod of 16 hours light followed by 8 hours dark. Photographs were taken every 3 days until day 12 by binocular. Each treatment included eight replicates. […] Bud outgrowth was measured (FIG. 4C) by Image J software and the length of the bud minus its length at the first day following application was calculated. Means of replicates were subjected to statistical analysis by using the IMP statistical package.
The ability of EGO10, applied to olive seedling cuttings through the bark of the stem, to reduce bud outgrowth was examined. An agar tube containing EGO10 was placed on the bark of the cutting (FIG. 6A). Additionally, for increased penetration of the hormone analog, the bark was scratched and the ability of EGO10 to reduce bud outgrowth in comparison to EGO10 application to non-scratched bark was tested.
As a next step in the development of SL application technology, different substances that can serve as media supporting the diffusion of SLs though the bark of plants were examined. As agar usually contains nutritional compounds, bacteria and fungi can easily contaminate agar cubes. Therefore, other substances were examined, as described hereinbelow. Experiments were performed similarly to those described in Example 3 above, by application of EGO10 in different media on the cutting bark, in plates. Bud outgrowth was monitored as described above.
Based on the results above, 30% HPC were mixed with two different concentrations of EGO10; 5 and 10 μM, and applied on the stem of olive seedling (FIG. 10). Bud outgrowth was monitored as described above and the results were compared to those obtained upon using agar cubes (described in Example 3), which served as a positive control.
In an attempt to improve HPC suitability to the examined system, HPC was mixed with glycerin in the ratio of 3:1. Glycerin, as a known humectant, has the capability to moist materials. In exemplary procedures, 5 μM EGO10 were added to the HPC and glycerin mixture, and then placed on the bark of olive cuttings. Bud outgrowth was monitored as described above.
A number of additional possible substances suitable as media for EGO10 application were screened, including polyvinyl acetate (PVAc), polyvinyl pyrrolidone (PVP) and hydroxy ethyl cellulose (HEC). The polymers were used at concentrations of 30% in water, however, as 30% PVP was not solid, it could not be tested. Accordingly, HEC and PVAc were examined for their ability to support EGO10 activity. Bud outgrowth was calculated as described above.

[5] = test system: olive seedlings; assay: Application via rigid tubes to olive seedlings under commercial nursery conditions; type: in vivo, Olea europaea L.; settings: 50 μM with HPC+glycerin
Method: Experiments were performed in AGROGOLD nurseries under commercial nursery conditions, which include nethouse, 40% shed without temperature control. The tested formulations were applied in rigid tubes. […] The tube was sealed and fixed to the plant by cello tape. The tube was completely filled with ˜1 ml of the experimental formulation and then the top was covered with cotton (FIGS. 20A-20F). Each experiment included 10 olive plants for each treatment. The number of wake up buds was counted 75 days following application and the seedlings architecture, general growth and development were examined.
The bud growth effect of EGO10 (50 μM) or acetone control, each supplied together with HPC+glycerin on the stem of the olive cuttings was tested under the nursery conditions.

[6] = test system: Almond; assay: EGO10 granules and collar application to almond in commercial nursery; type: in vivo, Prunus dulcis
Method: as §1

[7] = test system: Koroneiki olives; assay: EGO10 collar and granules application to Koroneiki olives; type: in vivo, Olea europaea L.; settings: collar of 50 μM
Method: Since Koroneiki olives are one of the most abundant cultivars worldwide, the effect of application of collar of 50 μM and granules that release 3×10^−8 M on development of side branches in this cultivar was examined.

CC1=C[C@H](O/C=C2\Cc3c(n(C)c4ccccc34)C2=O)OC1=O [EGO10]
lateral branching ([1]; 25 or 50 μM with HPC+glycerin, collar in rigid tubes, 20 days): clear tendency of reduction of lateral branching | development of water branches ([1]; collar, 25 or 50 μM): did not hinder development | no. of axillary branches ([2]; 50 μM as collar in Eppendorf tubes, not significantly different): marked reduction in the no. of axillary branches | no. of axillary branches ([2]; granules of slow release of 3×10^−8 M in the soil): did not result with substantial changes in the no. of axillary branches | number of axillary branches [3]: marked and significant reduction in the number of axillary branches | bud outgrowth ([4]; 5 μM in 30% HEC on the bark): did not | bud outgrowth ([4]; 5 μM in 30% PVAc on the bark): supported EGO10 activity of bud outgrowth inhibition | bud outgrowth ([4]; 5 μM in HPC mixed with glycerin (3:1) on the bark, until day 12): inhibited bud outgrowth throughout the experimental period | bud outgrowth ([4]; 5 μM in PVA:HEC (2:1) on the bark): did not sufficiently support EGO10 ability to act to inhibit bud outgrowth | bud outgrowth ([4]; 5 μM in PVA:PVP (2:1) on the bark): did not sufficiently support EGO10 ability to act to inhibit bud outgrowth | bud outgrowth ([4]; 5 μM in agar cube at the base of the cutting, day 12, vs acetone control): marked reduction in bud outgrowth | bud outgrowth ([4]; 5 μM in agar cube on the bark, 96, 168 and 264 h, vs acetone control): significant reduction in bud outgrowth; also recorded: reduced bud outgrowth throughout the entire experimental period | bud outgrowth ([4]; 5 and 10 μM in 30% HPC on the stem): reduced bud outgrowth until day 4 post application | application site (bark and vascular system) after removal of the apparatus [5]: unharmed and functional | seedling outgrowth ([5]; 75 days): not inhibited | number of wake up buds (bud outgrowth) ([5]; rigid tubes, 75 days, vs acetone+HPC+glycerin): inhibits bud outgrowth significantly | plant architecture ([5]; control seedlings bushy): one or two leading branches | number of axillary branches ([6]; 3×10^−8 M as granules of controlled release): marked and significant reduction in the number of axillary branches | number of axillary branches ([6]; both granules and collar): reduced the inhibitory effect of the granules on side branches | side branches development [7]: effective in preventing side branches development
